Reference: patent US8710065B2, “Tricyclic inhibitors of kinases” (AbbVie Inc., priority 2011, dated 2014)

target: T1, GST-tagged-Wee1 kinase (Homo sapiens, UniProt P30291); experiment: Wee1 time-resolved fluorescence equilibrium binding assay (displacement of Oregon Green-labeled ATP-competitive kinase probe); settings: read-out: Wee-1 inhibition (Ki)
T1 construct: purchased Carnabio (Carna Biosciences) 05-177
Procedure, shortened: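 Time-resolved fluorescence equilibrium binding with GST-Wee1, measuring displacement of a rapidly reversible Oregon Green-labelled ATP-competitive probe by competitive inhibitors; values reported as Ki.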

T1 sequence (P30291 whole entry): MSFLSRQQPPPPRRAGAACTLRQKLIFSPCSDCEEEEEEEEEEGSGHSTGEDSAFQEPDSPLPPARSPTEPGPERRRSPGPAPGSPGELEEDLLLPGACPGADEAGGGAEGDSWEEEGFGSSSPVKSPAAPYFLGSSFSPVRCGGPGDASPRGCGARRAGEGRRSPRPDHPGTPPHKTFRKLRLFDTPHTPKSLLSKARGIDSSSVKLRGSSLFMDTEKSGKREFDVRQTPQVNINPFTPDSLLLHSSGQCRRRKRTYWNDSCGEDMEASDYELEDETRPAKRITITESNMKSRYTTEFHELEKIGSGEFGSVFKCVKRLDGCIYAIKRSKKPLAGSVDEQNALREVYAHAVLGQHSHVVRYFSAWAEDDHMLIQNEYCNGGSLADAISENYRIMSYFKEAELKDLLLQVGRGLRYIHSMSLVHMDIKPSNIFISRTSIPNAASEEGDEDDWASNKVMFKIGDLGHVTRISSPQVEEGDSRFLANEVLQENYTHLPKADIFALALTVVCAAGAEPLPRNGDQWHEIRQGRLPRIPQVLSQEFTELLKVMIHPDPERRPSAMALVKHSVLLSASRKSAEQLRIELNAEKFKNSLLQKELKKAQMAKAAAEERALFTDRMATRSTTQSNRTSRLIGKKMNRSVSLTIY

Structure (SMILES)	Ki [µM]
CC1(C)CN(C(=O)CO)Cc2cc(Nc3ncc4c(=O)n(-c5c(F)cccc5Cl)c5nccn5c4n3)ccc21 [Example 316, 6-(2-chloro-6-fluorophenyl)-2-{[2-(hydroxyacetyl)-4,4-dimethyl-1,2,3,4-tetrahydroisoquinolin-7-yl]amino}imidazo[1,2-a]pyrimido[5,4-e]pyrimidin-5(6H)-one]	< 0.01
CC1(C)CN(S(N)(=O)=O)Cc2cc(Nc3ncc4c(=O)n(-c5c(F)cccc5Cl)c5nccn5c4n3)ccc21 [Example 317, 7-{[6-(2-chloro-6-fluorophenyl)-5-oxo-5,6-dihydroimidazo[1,2-a]pyrimido[5,4-e]pyrimidin-2-yl]amino}-4,4-dimethyl-3,4-dihydroisoquinoline-2(1H)-sulfonamide]	< 0.01
CN1CCN(c2ccc(Nc3ncc4c(=S)n(-c5ccccc5Cl)c5nccn5c4n3)cc2)CC1 [Example 332, 6-(2-chlorophenyl)-2-{[4-(4-methylpiperazin-1-yl)phenyl]amino}imidazo[1,2-a]pyrimido[5,4-e]pyrimidine-5(6H)-thione]	< 0.01
CN1CCN(c2ccc(Nc3ncc4c(=N)n(-c5ccccc5Cl)c5nccn5c4n3)cc2)CC1 [Example 333, 6-(2-chlorophenyl)-5-imino-N-[4-(4-methylpiperazin-1-yl)phenyl]-5,6-dihydroimidazo[1,2-a]pyrimido[5,4-e]pyrimidin-2-amine]	< 0.01
CN1Cc2cc(Nc3ncc4c(=S)n(-c5ccccc5Cl)c5nccn5c4n3)ccc2C(C)(C)C1 [Example 334, 6-(2-chlorophenyl)-2-[(2,4,4-trimethyl-1,2,3,4-tetrahydroisoquinolin-7-yl)amino]imidazo[1,2-a]pyrimido[5,4-e]pyrimidine-5(6H)-thione]	< 0.01
CN1Cc2cc(Nc3ncc4c(=N)n(-c5ccccc5Cl)c5nccn5c4n3)ccc2C(C)(C)C1 [Example 335, 6-(2-chlorophenyl)-5-imino-N-(2,4,4-trimethyl-1,2,3,4-tetrahydroisoquinolin-7-yl)-5,6-dihydroimidazo[1,2-a]pyrimido[5,4-e]pyrimidin-2-amine]	< 0.01
CN1CCN(c2ccc(Nc3ncc4c(=O)n(-c5cccc(F)c5)c5nccn5c4n3)cc2)CC1 [Example 336, 6-(3-fluorophenyl)-2-{[4-(4-methylpiperazin-1-yl)phenyl]amino}imidazo[1,2-a]pyrimido[5,4-e]pyrimidin-5(6H)-one]	0.01 to 0.1
COc1ccc(-n2c(=O)c3cnc(Nc4ccc(N5CCN(C)CC5)cc4)nc3n3ccnc23)c(OC)c1 [Example 338, 6-(2,4-dimethoxyphenyl)-2-{[4-(4-methylpiperazin-1-yl)phenyl]amino}imidazo[1,2-a]pyrimido[5,4-e]pyrimidin-5(6H)-one]	> 0.1
CCN1CCN(c2ccc(Nc3ncc4c(=O)n(-c5ccccc5Cl)c5nccn5c4n3)nc2)CC1 [Example 339, 6-(2-chlorophenyl)-2-{[5-(4-ethylpiperazin-1-yl)pyridin-2-yl]amino}imidazo[1,2-a]pyrimido[5,4-e]pyrimidin-5(6H)-one]	> 0.1
CN1CCN(c2ccc(Nc3ncc4c(=O)n(-c5ccc(C(F)(F)F)cc5Cl)c5nccn5c4n3)cc2)CC1 [Example 340, 6-[2-chloro-4-(trifluoromethyl)phenyl]-2-{[4-(4-methylpiperazin-1-yl)phenyl]amino}imidazo[1,2-a]pyrimido[5,4-e]pyrimidin-5(6H)-one]	> 0.1
CN1CCN(c2ccc(Nc3ncc4c(=O)n(-c5ccccc5OC(F)(F)F)c5nccn5c4n3)cc2)CC1 [Example 341, 2-{[4-(4-methylpiperazin-1-yl)phenyl]amino}-6-[2-(trifluoromethoxy)phenyl]imidazo[1,2-a]pyrimido[5,4-e]pyrimidin-5(6H)-one]	> 0.1
O=C(O)c1ccc(Nc2ncc3c(=O)n(-c4ccccc4Cl)c4nccn4c3n2)cc1 [Example 342, 4-{[6-(2-chlorophenyl)-5-oxo-5,6-dihydroimidazo[1,2-a]pyrimido[5,4-e]pyrimidin-2-yl]amino}benzoic acid]	> 0.1
O=c1c2cnc(Nc3ccc(Br)cc3)nc2n2ccnc2n1-c1ccccc1Cl [Example 343, 2-[(4-bromophenyl)amino]-6-(2-chlorophenyl)imidazo[1,2-a]pyrimido[5,4-e]pyrimidin-5(6H)-one]	0.01 to 0.1

The remaining lines, values ahead:

Ki [µM]	Structure (SMILES)
< 0.01	O=c1c2cnc(Nc3ccc(N4CC5(CCNCC5)C4)cc3)nc2n2ccnc2n1-c1c(Cl)cccc1Cl [Example 314, 2-{[4-(2,7-diazaspiro[3.5]non-2-yl)phenyl]amino}-6-(2,6-dichlorophenyl)imidazo[1,2-a]pyrimido[5,4-e]pyrimidin-5(6H)-one]
< 0.01	CN(C)[C@H]1CCN(c2ccc(Nc3ncc4c(=O)n(-c5c(Cl)cccc5Cl)c5nccn5c4n3)cc2)C1 [Example 315, 6-(2,6-dichlorophenyl)-2-({4-[(3S)-3-(dimethylamino)pyrrolidin-1-yl]phenyl}amino)imidazo[1,2-a]pyrimido[5,4-e]pyrimidin-5(6H)-one]
< 0.01	CC(=O)N1Cc2cc(Nc3ncc4c(=O)n(-c5c(Cl)cccc5Cl)c5nccn5c4n3)ccc2C(C)(C)C1 [Example 318, 2-[(2-acetyl-4,4-dimethyl-1,2,3,4-tetrahydroisoquinolin-7-yl)amino]-6-(2,6-dichlorophenyl)imidazo[1,2-a]pyrimido[5,4-e]pyrimidin-5(6H)-one]
< 0.01	CC1(C)CN(S(C)(=O)=O)Cc2cc(Nc3ncc4c(=O)n(-c5c(Cl)cccc5Cl)c5nccn5c4n3)ccc21 [Example 319, 6-(2,6-dichlorophenyl)-2-{[4,4-dimethyl-2-(methylsulfonyl)-1,2,3,4-tetrahydroisoquinolin-7-yl]amino}imidazo[1,2-a]pyrimido[5,4-e]pyrimidin-5(6H)-one]
< 0.01	CCS(=O)(=O)N1Cc2cc(Nc3ncc4c(=O)n(-c5c(Cl)cccc5Cl)c5nccn5c4n3)ccc2C(C)(C)C1 [Example 320, 6-(2,6-dichlorophenyl)-2-{[2-(ethylsulfonyl)-4,4-dimethyl-1,2,3,4-tetrahydroisoquinolin-7-yl]amino}imidazo[1,2-a]pyrimido[5,4-e]pyrimidin-5(6H)-one]
< 0.01	CC(=O)N1CCC(Nc2ccc(Nc3ncc4c(=O)n(-c5c(Cl)cccc5Cl)c5nccn5c4n3)cc2)CC1 [Example 321, 2-({4-[(1-acetylpiperidin-4-yl)amino]phenyl}amino)-6-(2,6-dichlorophenyl)imidazo[1,2-a]pyrimido[5,4-e]pyrimidin-5(6H)-one]
< 0.01	CS(=O)(=O)N1CCC(Nc2ccc(Nc3ncc4c(=O)n(-c5c(Cl)cccc5Cl)c5nccn5c4n3)cc2)CC1 [Example 322, 6-(2,6-dichlorophenyl)-2-[(4-{[1-(methylsulfonyl)piperidin-4-yl]amino}phenyl)amino]imidazo[1,2-a]pyrimido[5,4-e]pyrimidin-5(6H)-one]
< 0.01	CN1CCC2(CC1)CCN(c1ccc(Nc3ncc4c(=O)n(-c5c(Cl)cccc5Cl)c5nccn5c4n3)cc1)CC2 [Example 323, 6-(2,6-dichlorophenyl)-2-{[4-(9-methyl-3,9-diazaspiro[5.5]undec-3-yl)phenyl]amino}imidazo[1,2-a]pyrimido[5,4-e]pyrimidin-5(6H)-one]
< 0.01	CS(=O)(=O)N1CCC2(CN(c3ccc(Nc4ncc5c(=O)n(-c6c(Cl)cccc6Cl)c6nccn6c5n4)cc3)C2)C1 [Example 324, 6-(2,6-dichlorophenyl)-2-({4-[6-(methylsulfonyl)-2,6-diazaspiro[3.4]oct-2-yl]phenyl}amino)imidazo[1,2-a]pyrimido[5,4-e]pyrimidin-5(6H)-one]
< 0.01	O=c1c2cnc(Nc3ccc(N4CCN5CCC[C@H]5C4)cc3)nc2n2ccnc2n1-c1ccccc1Cl [Example 325, 6-(2-chlorophenyl)-2-({4-[(8aS)-hexahydropyrrolo[1,2-a]pyrazin-2(1H)-yl]phenyl}amino)imidazo[1,2-a]pyrimido[5,4-e]pyrimidin-5(6H)-one]
< 0.01	CN1C[C@H]2CCN(c3ccc(Nc4ncc5c(=O)n(-c6c(Cl)cccc6Cl)c6nccn6c5n4)cc3)[C@H]2C1 [Example 326, 6-(2,6-dichlorophenyl)-2-({4-[(3aR,6aR)-5-methylhexahydropyrrolo[3,4-b]pyrrol-1(2H)-yl]phenyl}amino)imidazo[1,2-a]pyrimido[5,4-e]pyrimidin-5(6H)-one]
< 0.01	CCN(CCN(C)C)c1ccc(Nc2ncc3c(=O)n(-c4c(Cl)cccc4Cl)c4nccn4c3n2)cc1 [Example 327, 6-(2,6-dichlorophenyl)-2-[(4-{[2-(dimethylamino)ethyl](ethyl)amino}phenyl)amino]imidazo[1,2-a]pyrimido[5,4-e]pyrimidin-5(6H)-one]
< 0.01	CC(C)NCCN(c1ccc(Nc2ncc3c(=O)n(-c4c(Cl)cccc4Cl)c4nccn4c3n2)cc1)C(C)C [Example 328, 6-(2,6-dichlorophenyl)-2-[(4-{propan-2-yl[2-(propan-2-ylamino)ethyl]amino}phenyl)amino]imidazo[1,2-a]pyrimido[5,4-e]pyrimidin-5(6H)-one]
< 0.01	CC(=O)N1CCc2ccc(Nc3ncc4c(=O)n(-c5c(Cl)cccc5Cl)c5nccn5c4n3)cc2C1 [Example 329, 2-[(2-acetyl-1,2,3,4-tetrahydroisoquinolin-7-yl)amino]-6-(2,6-dichlorophenyl)imidazo[1,2-a]pyrimido[5,4-e]pyrimidin-5(6H)-one]
< 0.01	CS(=O)(=O)N1CCc2cc(Nc3ncc4c(=O)n(-c5c(Cl)cccc5Cl)c5nccn5c4n3)ccc2C1 [Example 330, 6-(2,6-dichlorophenyl)-2-{[2-(methylsulfonyl)-1,2,3,4-tetrahydroisoquinolin-6-yl]amino}imidazo[1,2-a]pyrimido[5,4-e]pyrimidin-5(6H)-one]
< 0.01	CC(=O)N1CCc2cc(Nc3ncc4c(=O)n(-c5c(Cl)cccc5Cl)c5nccn5c4n3)ccc2C1 [Example 331, 2-[(2-acetyl-1,2,3,4-tetrahydroisoquinolin-6-yl)amino]-6-(2,6-dichlorophenyl)imidazo[1,2-a]pyrimido[5,4-e]pyrimidin-5(6H)-one]
> 0.1	CN1CCN(c2ccc(Nc3ncc4c(=O)n(-c5cccc(Cl)c5)c5nccn5c4n3)cc2)CC1 [Example 337, 6-(3-chlorophenyl)-2-{[4-(4-methylpiperazin-1-yl)phenyl]amino}imidazo[1,2-a]pyrimido[5,4-e]pyrimidin-5(6H)-one]
